Consider 17 molecules from patent publication US10329309B2, “3-(3H-imidazo[4,5-B]pyridin-2-yl)-1H-pyrazolo[4,3-B]pyridines and therapeutic uses thereof” (Samumed, LLC, priority 2015, dated 2019).

What all share (type): cell-based
The test system of one test is IL-6 (THP-1 cells). Put plainly: Inhibition of IL-6 in LPS-stimulated THP-1 monocytes (HTRF). As to conditions: Homo sapiens; for EC50: LPS 500 ng/mL, IL-6 by HTRF; for inhibition at 10 µM: LPS stimulated, IL-6, at 10 μM, read-out: percent inhibition at 10 μM (given for EC50 of >10 μM). Summed up:
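IL-6 release was read as the HTRF 665/620 nm ratio after 22 h of 500 ng/mL LPS at 37 °C. Before stimulation, THP-1 cells kept 24 h in 1% FBS were exposed 2 h to a 10-point 1:3 compound series starting at 10 μM, in 0.1% DMSO. Four-parameter EC50s came from DMSO-normalized duplicates, with % inhibition at 10 μM reported beyond 10 μM.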

For test [1], the system named is Wnt activity (Sp5-Luc reporter, SW480 colon carcinoma cells). Put plainly: Screening assay for Wnt activity: Sp5-Luc reporter gene assay in SW480 cells. As to conditions: Homo sapiens; for inhibition at 10 µM: 10 μM compound, read-out: percent inhibition at 10 μM (given for EC50 of >10 μM); for EC50: overnight incubation, 10-point dose-response from 10 μM. Summed up:
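Luminescence (BrightGlo) read after overnight 37 °C exposure of Sp5-Luc SW480 reporter cells, 4,000/well in 1% FBS, to compound dosed 1:3 over 10 points from 10 μM with 0.1% DMSO. Values normalized to DMSO-only cells, fitted with variable-slope four-parameter model; where EC50 exceeds 10 μM, % inhibition at 10 μM reported.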

The test system of a further test is SW480 colon cancer cells. As to the kind of experiment: Cell viability assay (CellTiter-Blue), four days. As to conditions: Homo sapiens, 96 h; for EC50: CellTiter-Blue cell viability; for inhibition at 10 µM: read-out: percent inhibition at 10 μM (given for EC50 of >10 μM). Summed up:
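4-day exposure, 37 °C/5% CO2; ~2×10^3 SW480 cells/well; 8-pt 1:3 curve, 10–0.0045 μM, duplicates vs DMSO controls. Resazurin→resorufin fluorescence readout, ~3 h. EC50 by nonlinear fit; if >10 μM, % inhibition at 10 μM reported.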

The structures appear in SMILES notation.

Regarding `Cn1cc(-c2ccc3[nH]nc(-c4nc5c(-c6cc(F)cc(CNS(C)(=O)=O)c6)ccnc5[nH]4)c3n2)cn1` [Compound 764, N-(3-Fluoro-5-(2-(5-(1-methyl-1H-pyrazol-4-yl)-1H-pyrazolo[4,3-b]pyridin-3-yl)-3H-imidazo[4,5-b]pyridin-7-yl)benzyl)methanesulfonamide], the EC50 (with IL-6 (THP-1 cells); in test [1]; with SW480 colon cancer cells) was above 10 µM each time. Besides, the inhibition at 10 µM came out at 24.2% in the test with IL-6 (THP-1 cells), 20.9% in test [1] and 0% in the test on SW480 colon cancer cells.
In the case of `CN1CCN(c2ccnc3[nH]c(-c4n[nH]c5ccc(-c6cncnc6)nc45)nc23)CC1` [Compound 251, 3-(7-(4-Methylpiperazin-1-yl)-3H-imidazo[4,5-b]pyridin-2-yl)-5-(pyrimidin-5-yl)-1H-pyrazolo[4,3-b]pyridine], the concentration for a half-maximal effect (EC50) (with IL-6 (THP-1 cells); in test [1]; in the test on SW480 colon cancer cells) was above 10 µM in each case. Moreover, the inhibition at 10 µM came out at 8.3% in the test on IL-6 (THP-1 cells), 16.5% in test [1] and 0% with SW480 colon cancer cells.
Consider `Cc1ccncc1-c1ccc2[nH]nc(-c3nc4c(-c5ccncc5)ccnc4[nH]3)c2n1` [Compound 117, 5-(4-methylpyridin-3-yl)-3-(7-(pyridin-4-yl)-3H-imidazo[4,5-b]pyridin-2-yl)-1H-pyrazolo[4,3-b]pyridine], for which the 50% effective concentration (EC50) (with IL-6 (THP-1 cells); in test [1]; in the test with SW480 colon cancer cells) was above 10 µM each time. The inhibition at 10 µM was found to be 18.6% with IL-6 (THP-1 cells), 4.8% in test [1] and 1.7% in the test on SW480 colon cancer cells.
Regarding `Cn1cc(-c2ccc3[nH]nc(-c4nc5c(-c6ccc(F)cc6)ccnc5[nH]4)c3n2)c(CO)n1` [Compound 1129, (4-(3-(7-(4-Fluorophenyl)-3H-imidazo[4,5-b]pyridin-2-yl)-1H-pyrazolo[4,3-b]pyridin-5-yl)-1-methyl-1H-pyrazol-3-yl)methanol], the EC50 (in the test with IL-6 (THP-1 cells); in test [1]; in the test on SW480 colon cancer cells) was above 10 µM each time. Besides, the inhibition at 10 µM is 24.8% in the test on IL-6 (THP-1 cells), 14.8% in test [1] and 16.9% with SW480 colon cancer cells.
For `Cc1ccc(-c2ccnc3[nH]c(-c4n[nH]c5ccc(-c6cncc(OC7CCCCC7)c6)nc45)nc23)s1` [Compound 735, 5-(5-(Cyclohexyloxy)pyridin-3-yl)-3-(7-(5-methylthiophen-2-yl)-3H-imidazo[4,5-b]pyridin-2-yl)-1H-pyrazolo[4,3-b]pyridine], the figures for the EC50 (in the test on IL-6 (THP-1 cells); in test [1]; in the test with SW480 colon cancer cells) were 1.79 µM, 0.984 µM and above 10 µM, respectively. In the test with SW480 colon cancer cells, the inhibition at 10 µM was 10.9%.
Turning to `Cc1ccc(-c2ccnc3[nH]c(-c4n[nH]c5ccc(-c6cncc(NC(=O)C7CCCC7)c6)nc45)nc23)s1` [Compound 414, N-(5-(3-(7-(5-Methylthiophen-2-yl)-3H-imidazo[4,5-b]pyridin-2-yl)-1H-pyrazolo[4,3-b]pyridin-5-yl)pyridin-3-yl)cyclopentanecarboxamide], the concentration giving a half-maximal response (EC50) with IL-6 (THP-1 cells) was 1.85 µM; in test [1], above 10 µM; with SW480 colon cancer cells, above 10 µM. Besides, the inhibition at 10 µM in test [1] is 47%; in the test with SW480 colon cancer cells, 14.7%.
Take `CN(C)Cc1cncc(-c2ccc3[nH]nc(-c4nc5c(N6CCCCC6)ccnc5[nH]4)c3n2)c1` [Compound 181, N,N-dimethyl-1-(5-(3-(7-(piperidin-1-yl)-3H-imidazo[4,5-b]pyridin-2-yl)-1H-pyrazolo[4,3-b]pyridin-5-yl)pyridin-3-yl)methanamine]: the EC50 in the test on IL-6 (THP-1 cells) was 8.3 µM; in test [1], above 10 µM; in the test with SW480 colon cancer cells, 5.55 µM. In test [1], the inhibition at 10 µM came out at 2.2%.
As to `Cc1cn(-c2ccnc3[nH]c(-c4n[nH]c5ccc(-c6cncc(NC(=O)CC(C)C)c6)nc45)nc23)cn1` [Compound 198, 3-methyl-N-(5-(3-(7-(4-methyl-1H-imidazol-1-yl)-3H-imidazo[4,5-b]pyridin-2-yl)-1H-pyrazolo[4,3-b]pyridin-5-yl)pyridin-3-yl)butanamide], the EC50 (in the test on IL-6 (THP-1 cells); in test [1]; in the test with SW480 colon cancer cells) was above 10 µM in each case. The inhibition at 10 µM worked out at 29.1% in the test with IL-6 (THP-1 cells), 27.6% in test [1] and 46% with SW480 colon cancer cells.
As to `Cc1cn(-c2ccnc3[nH]c(-c4n[nH]c5ccc(-c6cncc(CN7CCCC7)c6)nc45)nc23)cn1` [Compound 210, 3-(7-(4-methyl-1H-imidazol-1-yl)-3H-imidazo[4,5-b]pyridin-2-yl)-5-(5-(pyrrolidin-1-ylmethyl)pyridin-3-yl)-1H-pyrazolo[4,3-b]pyridine], the EC50 (in the test on IL-6 (THP-1 cells); in test [1]; with SW480 colon cancer cells) was above 10 µM throughout. The inhibition at 10 µM stood at 21.7% in the test with IL-6 (THP-1 cells), 31.5% in test [1] and 12.6% in the test on SW480 colon cancer cells.
For `c1cc(-c2ccnc3[nH]c(-c4n[nH]c5ccc(-c6cncc(OC7CCNCC7)c6)nc45)nc23)ccn1` [Compound 576, 5-(5-(Piperidin-4-yloxy)pyridin-3-yl)-3-(7-(pyridin-4-yl)-3H-imidazo[4,5-b]pyridin-2-yl)-1H-pyrazolo[4,3-b]pyridine], the EC50 (in the test with IL-6 (THP-1 cells); in test [1]; in the test with SW480 colon cancer cells) was above 10 µM throughout. Also, the results for the inhibition at 10 µM (in the test on IL-6 (THP-1 cells); in test [1]; in the test with SW480 colon cancer cells) were 38.1%, 8.9% and 1.7%, respectively.
As for `Fc1cccc(-c2ccnc3[nH]c(-c4n[nH]c5ccc(-c6cncc(CN7CCC(F)(F)C7)c6)nc45)nc23)c1` [Compound 26, 5-(5-((3,3-Difluoropyrrolidin-1-yl)methyl)pyridin-3-yl)-3-(7-(3-fluorophenyl)-3H-imidazo[4,5-b]pyridin-2-yl)-1H-pyrazolo[4,3-b]pyridine], the concentration for a half-maximal effect (EC50) with IL-6 (THP-1 cells) amounted to 0.985 µM; in test [1], 0.885 µM; in the test with SW480 colon cancer cells it was 0.409 µM.
For the molecule `COc1cccc(-c2ccnc3[nH]c(-c4n[nH]c5ccc(-c6cncc(O)c6)nc45)nc23)c1` [Compound 1030, 5-(3-(7-(3-Methoxyphenyl)-3H-imidazo[4,5-b]pyridin-2-yl)-1H-pyrazolo [4,3-b]pyridin-5-yl)pyridin-3-ol], the EC50 (in the test on IL-6 (THP-1 cells); in test [1]; in the test with SW480 colon cancer cells) was above 10 µM throughout. The figures for the inhibition at 10 µM (with IL-6 (THP-1 cells); in test [1]; with SW480 colon cancer cells) were 40.9%, 33.5% and 3%, respectively.
Take `O=C(Nc1cncc(-c2ccc3[nH]nc(-c4nc5c(-c6ccccn6)ccnc5[nH]4)c3n2)c1)c1ccccc1` [Compound 151, N-(5-(3-(7-(Pyridin-2-yl)-3H-imidazo[4,5-b]pyridin-2-yl)-1H-pyrazolo[4,3-b]pyridin-5-yl)pyridin-3-yl)benzamide]: the concentration for a half-maximal effect (EC50) (in the test with IL-6 (THP-1 cells); in test [1]; in the test on SW480 colon cancer cells) was above 10 µM each time. The inhibition at 10 µM with IL-6 (THP-1 cells) was 39.1%; in test [1], 6.4%; in the test with SW480 colon cancer cells, 2.7%.
For `Cc1ncc(-c2ccc3[nH]nc(-c4nc5c(-c6ccoc6)ccnc5[nH]4)c3n2)n1C` [Compound 685, 5-(1,2-Dimethyl-1H-imidazol-5-yl)-3-(7-(furan-3-yl)-3H-imidazo[4,5-b]pyridin-2-yl)-1H-pyrazolo[4,3-b]pyridine], the EC50 in the test on IL-6 (THP-1 cells) is above 10 µM; in test [1], 2.82 µM; with SW480 colon cancer cells it was 4.19 µM. In addition, the inhibition at 10 µM with IL-6 (THP-1 cells) worked out at 24.3%.
Consider `Cn1cc(-c2ccc3[nH]nc(-c4nc5c(-c6ccc7c(c6)OCO7)ccnc5[nH]4)c3n2)c(CO)n1` [Compound 1152, (4-(3-(7-(Benzo[d][1,3]dioxol-5-yl)-3H-imidazo[4,5-b]pyridin-2-yl)-1H-pyrazolo[4,3-b]pyridin-5-yl)-1-methyl-1H-pyrazol-3-yl)methanol], for which the 50% effective concentration (EC50) (with IL-6 (THP-1 cells); in test [1]; with SW480 colon cancer cells) was above 10 µM in each case. Also, the inhibition at 10 µM was found to be 28.4% with IL-6 (THP-1 cells), 15.4% in test [1] and 28.2% in the test with SW480 colon cancer cells.
Take `CCCCC(=O)Nc1cncc(-c2ccc3[nH]nc(-c4nc5c(-c6cc(F)cc(NCCN(C)C)c6)ccnc5[nH]4)c3n2)c1` [Compound 467, N-(5-(3-(7-(3-((2-(dimethylamino)ethyl)amino)-5-fluorophenyl)-3H-imidazo[4,5-b]pyridin-2-yl)-1H-pyrazolo[4,3-b]pyridin-5-yl)pyridin-3-yl)pentanamide]: the EC50 (in the test on IL-6 (THP-1 cells); in test [1]; with SW480 colon cancer cells) was above 10 µM each time. The values for the inhibition at 10 µM (with IL-6 (THP-1 cells); in test [1]; in the test with SW480 colon cancer cells) were 23%, 34.1% and 2.7%, respectively.
With `CC(C)(C)CC(=O)Nc1cncc(-c2ccc3[nH]nc(-c4nc5cccnc5[nH]4)c3n2)c1` [Compound 268, N-(5-(3-(3H-Imidazo[4,5-b]pyridin-2-yl)-1H-pyrazolo[4,3-b]pyridin-5-yl)pyridin-3-yl)-3,3-dimethylbutanamide], the EC50 (in the test with IL-6 (THP-1 cells); in test [1]; in the test on SW480 colon cancer cells) was above 10 µM each time. Moreover, the inhibition at 10 µM was found to be 32.5% with IL-6 (THP-1 cells), 1.9% in test [1] and 0% in the test on SW480 colon cancer cells.

As usually defined, the EC50 is the concentration at which the effect is half-maximal. Lower therefore signals a more potent agent. As a reminder, the inhibition is the drop in the measured response relative to a control, in per cent.
